Source: US10906901B2, “Crystal form and salt form of N-phenyl-2-aminopyrimidine compound, and preparation method therefor” (HAINAN YUEKANG BIOMEDICINES CO., LTD., priority 2017, dated 2021)
Converted amounts (≈) assume the structure as drawn.

Legend:
[1] = Dynamic Vapor Sorption (DVS); format: physicochemical
[2] = Accelerated stability test; format: physicochemical
EGFR = EGFR (Homo sapiens, UniProt P00533); conditions: described in Chinese Patent Application 201610679161.7; cited from earlier work
[3] = tested on: cells with single or double EGFR mutations; conditions: described in Chinese Patent Application 201610679161.7; cited from earlier work
physchem = conditions: thermodynamic from solid
Experimental: Subsequently, 2 mL of buffer solutions at pH 1.2 and 6.8 were added respectively to prepare a saturated solution. The above resulting suspensions were placed in a shaker and shaken at a speed of 200 rpm for 2 hours at 25° C. The resulting mixtures were filtered, and the filtrates were diluted by an appropriate multiple and analyzed by HPLC to determine the solubility of each sample in different media.

[4] = Bioavailability assay, single oral dose of capsules in Beagle dogs; conditions: single oral dose 3 mg/kg, crystalline powders in capsules

Chain of EGFR (P00533 25-1210): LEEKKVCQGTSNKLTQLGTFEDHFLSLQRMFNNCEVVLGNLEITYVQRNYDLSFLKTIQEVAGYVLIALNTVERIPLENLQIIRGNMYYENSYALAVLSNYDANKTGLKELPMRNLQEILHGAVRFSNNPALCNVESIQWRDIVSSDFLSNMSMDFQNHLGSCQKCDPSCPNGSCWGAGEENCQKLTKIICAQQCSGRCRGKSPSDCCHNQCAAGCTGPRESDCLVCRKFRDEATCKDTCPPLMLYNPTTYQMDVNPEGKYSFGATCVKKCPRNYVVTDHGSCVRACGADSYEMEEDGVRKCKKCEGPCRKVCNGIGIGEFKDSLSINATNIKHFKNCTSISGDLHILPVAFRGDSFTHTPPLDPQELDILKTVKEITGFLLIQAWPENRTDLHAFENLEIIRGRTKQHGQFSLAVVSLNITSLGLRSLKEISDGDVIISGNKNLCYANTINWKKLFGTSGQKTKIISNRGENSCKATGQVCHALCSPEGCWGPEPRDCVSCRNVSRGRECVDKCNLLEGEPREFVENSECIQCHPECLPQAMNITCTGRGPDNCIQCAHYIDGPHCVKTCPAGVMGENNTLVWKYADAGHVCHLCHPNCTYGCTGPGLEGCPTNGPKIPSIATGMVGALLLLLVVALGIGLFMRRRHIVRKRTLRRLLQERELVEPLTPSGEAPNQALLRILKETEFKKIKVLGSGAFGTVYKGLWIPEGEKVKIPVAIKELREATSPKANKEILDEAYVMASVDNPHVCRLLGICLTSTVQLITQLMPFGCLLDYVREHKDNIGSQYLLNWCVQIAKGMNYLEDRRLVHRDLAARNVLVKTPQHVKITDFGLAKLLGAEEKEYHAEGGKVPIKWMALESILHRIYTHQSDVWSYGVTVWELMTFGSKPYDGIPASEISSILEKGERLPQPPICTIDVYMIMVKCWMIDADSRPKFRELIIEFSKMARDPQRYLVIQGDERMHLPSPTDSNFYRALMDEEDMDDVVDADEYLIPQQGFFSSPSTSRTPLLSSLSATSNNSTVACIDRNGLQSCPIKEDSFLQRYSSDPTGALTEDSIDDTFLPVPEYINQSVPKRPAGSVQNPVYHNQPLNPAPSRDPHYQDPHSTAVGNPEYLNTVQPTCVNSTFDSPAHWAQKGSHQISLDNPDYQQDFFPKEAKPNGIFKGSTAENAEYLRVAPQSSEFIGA

hygroscopicity ([1]; DVS curve at 25° C.)	moisture absorption ([1]; at 80% RH) [%]	crystal structure after the accelerated stability test [2]	chemical stability ([2]; when avoiding the light)	solubility at 2 h (physchem; buffer solution pH 1.2, 25 °C, pH 1.2, simulated gastric fluid) [mg/mL]	solubility at 2 h (physchem; buffer solution pH 6.8, 25 °C, pH 6.8, aqueous buffer) [mg/mL]	Compound	inhibitory activity against EGFR (EGFR)	selectivity to EGFR mutants (EGFR)	inhibitory activity on cells with single or double EGFR mutations [3]	AUC(0-t) [4] [ng·h/mL]	Cmax [4] [ng/mL]	peak time Tmax [4] [h]
almost no hygroscopicity	0.934	does not change	good chemical stability	38.1 (≈ 76.1 mM)	6.75 (≈ 13.5 mM)	C=CC(=O)Nc1cc(Nc2nccc(-c3cnc4c(C)cccn34)n2)c(OC)cc1N(C)CCN(C)C [Compound 1, N-(2-methoxy-4-(N^1,N^2,N^2-trimethyl-1,2-ethylenediamine-1-yl)-5-acrylamidephenyl)-4-(8-methylimidazo[1,2-a]pyridin-3-yl)pyrimidin-2-amine]	significant inhibitory activity	high selectivity	strong inhibitory activity			
						Benzoate				856.41	203.15	2
